According to patent publication US4474775A, “Pyrazol-4-yl phosphates and insecticidal and acaricidal use” (priority 1979, dated 1984):

Tests used:
Unaspis yanonensis = test: Effectiveness against Unaspis yanonensis (Testing Example 3); format: in vivo; details: 480 h, second-instar larvae, 500 ppm wettable powder suspension sprayed, 20th day after spraying
Method: Testing Example 3: Effectiveness of Unaspis yanonensis
A test compound was processed into a wettable powder in accordance with the formulation of Example 7, and was diluted with water (with Dyne®, spreading agent, as diluted 3000-fold) to prepare a 500 ppm aqueous suspension. 20 ml of the aqueous suspension was sprayed on second-instar larvae (10 to 50 of the number parasitized) of Unaspis yanonensis on a seedling of Citrus trifoliate (2 months after germination) being planted in a pot (9 cm in diameter). After the sprayed pot was transferred to a greenhouse (25° to 30°C.), adult insects were counted on the 20th day after spraying. Mortality (%) is calculated by the following equation: [formula]

Tetranychus urticae = test: Effectiveness against Tetranychus urticae (Testing Example 4); format: in vivo; details: decrease rate grade, 500 ppm spray on kidney bean plant; for Efficacy grading, 2nd day: 2nd day after spraying; for Efficacy grading, 7th day: 7th day after spraying
Method: Testing Example 4: Effectiveness against Tetranychus urticae
A test compound was processed into an emulsifiable concentrate in accordance with the formulation of Example 6, and diluted with water (with Dyne®, spreading agent, as diluted 3000-fold) to prepare a 500 ppm aqueous solution. Ten female adults of Tetranychus urticae) were infected on the seedling of a kidney bean plant water-cultured in a polyethylene cup, and the cups were placed in a glass chamber (28° C.) for 24 hours, followed by spraying 20 ml of the aqueous solution on the kidney bean plant. After the sprayed cup was placed again in the glass chamber, the number of the adults and larvae living on the leaves was counted on the 2nd and 7th days after spraying. The test was repeated twice, and the test results are tabulated in Table 5 in terms of the efficacy grading as determined by calculating a decrease rate by the following equation:
Decrease rate (%)=[(number of mites tested-number of larvae living on the day of inspection)/(number of mites tested)]×100

[1] = Oral acute toxicity in mice (Toxicological Test); details: mouse, in vivo, five-week aged ddY-SLC strained male mice
Excerpt: Below tabulated are the oral acute toxicity values obtained with five-week aged, ddY-SLC strained male mice: […]

Spodoptera litura = test: Effectiveness against Spodoptera litura (Testing Example 2); format: in vivo; details: second-instar larvae, 500 ppm spray on soybean, 28° C., 24 hours
Method: Testing Example 2: Effectiveness against Spodoptera litura
Twenty milliliters of a 500 ppm, water-diluted solution (with Dyne® Takeda Chem. Ind. Ltd., spreading agent, as diluted 3000-fold) of the test compound (the emulsifiable concentrate of Example 6) was sprayed on grown seedlings (10 days after germination) of soybean plant water-cultured in a polyethylene cup by the use of a spray gun (nozzle pressure of 1 kg/cm^2 gauge) in a spraying chamber. 2 hours after spraying, two main leaves of soybean plant were cut off and were placed into two cups (6 cm in diameter and 4 cm in depth), respectively, and ten second-instar larvae of Spodoptera litura were liberated. The cups were left in the room (28° C.) for 24 hours, and the dead larvae were counted.

Laodelphax striatellus [2] = test: Effectiveness against Laodelphax striatellus, third-instar larvae, root dip (Testing Example 1 (a)); format: in vivo; details: 40 ppm emulsifiable concentrate dilution, root dip 2 hours, 28° C., 24 hours, read-out: Mortality (I)
Method: (§1) Testing Example 1: Effectiveness against Laodelphax striatellus
(a) A test compound was processed into an emulsifiable concentrate in accordance with the formulation of Example 6, followed by diluting with water to prepare a treating solution of a 40 ppm concentration. 2.5 ml of the treating solution was placed into a test tube (with 1.7 cm of diameter, 4 cm deep), in which three seedlings of a paddy-rice plant (on the 7th day after germination) were allowed to stand so their root portions were dipped into the solution for 2 hours. The seedlings were then transferred into a test tube having 1 ml water placed in the bottom, and ten third-instar larvae of Laodelphax striatellus were released. After allowing the test tube to stand in the room (28° C.) for 24 hours, the dead larvae were counted. The test is repeated twice, and the test results are tabulated, in terms of mortality, in Table 2 (I).

Laodelphax striatellus [3] = test: Effectiveness against Laodelphax striatellus, adults, dust on paddy-rice plant (Testing Example 1 (b)); format: in vivo; details: small brown planthopper, adults on dusted rice, 24 h
Method: as §1
(b) A test compound was processed into a dust preparation in accordance with the formulation of Example 8, and […] of the preparation was dusted on the potted paddy-rice plant (1/5,000 a) by the Berger Duster method. After dusting, leaves (15 cm long) of the paddy rice were cut off and were placed in a test tube containing 1 ml of water in the bottom, and ten adults of Laodelphax striatellus were released therein. After allowing the test tube to stand in the room (28° C.) for 24 hours, the dead insects were counted.

Row | SMILES | mortality at 500 µg/mL (Unaspis yanonensis) [%] | Efficacy grading, 2nd day (Tetranychus urticae) | Efficacy grading, 7th day (Tetranychus urticae) | LD50 [1] [mg/kg] | mortality at 500 ppm (Spodoptera litura) [%] | mortality at 40 µg/mL (Laodelphax striatellus [2]) [%] | Mortality (II) (Laodelphax striatellus [3]) [%]
1 | COP(=S)(OC)Oc1cnn(-c2ccccc2)c1 [Compound No. 1] | 86 | 3 (Not less than 90) | 3 (Not less than 90) | > 300 |  |  | 
2 | CCCOP(=S)(OCC)Oc1cnn(-c2ccccc2)c1 (centres unmarked) [Compound No. 3] | 79 | 3 (Not less than 90) | 0 (Not more than 20) | > 300 |  |  | 
3 | CCCSP(=O)(OCC)Oc1cnn(-c2ccccc2)c1 (centres unmarked) [Compound No. 4, O-ethyl-O-(1-phenylpyrazol-4-yl)-S-n-propylphosphorothiolate] | 84 | 3 (Not less than 90) | 3 (Not less than 90) | > 300 | 100 |  | 
4 | CCCSP(=O)(OCC)Oc1cnn(-c2ccc(Cl)c(Cl)c2)c1 (centres unmarked) [Compound No. 31, O-ethyl-O-[3,4-dichlorophenyl)pyrazol-4-yl]-S-n-propyl phosphorothiolate] | 75 | 3 (Not less than 90) | 3 (Not less than 90) | > 300 | 100 | 100 | 90
5 | CCOP(=S)(OCC)Oc1cnn(-c2ccccc2)c1 [compound 2] | 75 |  |  | > 300 |  |  | 
6 | CCCSP(=O)(OCC)Oc1cnn(-c2ccccc2Cl)c1 (centres unmarked) [compound 12] | 71 | 3 (Not less than 90) | 3 (Not less than 90) | > 300 | 100 |  | 
7 | CCCSP(=S)(OCC)Oc1cnn(-c2ccc(OC)cc2)c1 (centres unmarked) [compound 25] | 100 | 3 (Not less than 90) | 3 (Not less than 90) | > 300 | 100 |  | 
8 | CCCSP(=O)(OCC)Oc1cnn(-c2ccc(Cl)cc2Cl)c1 (centres unmarked) [compound 29] | 97 | 3 (Not less than 90) | 3 (Not less than 90) | ~300 | 100 | 95 | 30
9 | CCCSP(=O)(OCC)Oc1cnn(-c2cc(Cl)cc(Cl)c2)c1 (centres unmarked) [compound 33] | 70 | 3 (Not less than 90) | 3 (Not less than 90) | > 300 | 100 | 100 | 65
10 | CCOP(=S)(OCC)Oc1cnn(-c2ccc(C)cc2C)c1 [compound 34] | 79 |  |  | > 300 |  |  | 
11 | CCCSP(=O)(OCC)Oc1cnn(-c2ccc(C)cc2C)c1 (centres unmarked) [compound 35] | 82 | 3 (Not less than 90) | 3 (Not less than 90) | ~300 | 100 |  | 
